B1: carbonyl reductase: Carbonyl reductase purified from Ogataea minuta var. nonfermentans IFO 1473, amino acid sequence SEQ ID NO: 1, about 27,000 Da by SDS-PAGE (protein)
chain: MAKTVYFIAGASRGIGLEVASQLSANPDNYVIASYRSEKSASGLLELAKKDNVDTIVLDIASQESIDAVPAQISKLTDGIDVALINAGIANAMCPILECSRESYTDHWTTNALGPIMLYQAIHKFMLQRETRKVFFTTSAGGSIQAKIPVPVSGYGMSKAALNYAVRKLADECYKDNFTIVLLHPGFVKTDMGQSAIQKMSNGNAELLAYIDSMTIDVPTSAGQIVGAIMTLDKQSSGRFINAADQFDMPF
modifications: Ogataea minuta var nonfermentans

Each molecule was assayed on carbonyl reductase (assay: Temperature stability of the enzyme (residual 2,2,2-trifluoroacetophenone reducing activity)). Details: 50° C. or more, 10 minutes, 20 mM phosphate buffer pH 7.0.
Format: biochemical, Ogataea minuta var. nonfermentans IFO 1473

In the case of B1, the residual activity is reported as “rapidly deactivated”.

Same assay, conditions: 70° C., 10 minutes, 20 mM phosphate buffer pH 7.0

For B1, the residual activity was “lost the activity completely”.

Same assay, conditions: up to 40° C., 10 minutes, 20 mM phosphate buffer pH 7.0

In the case of B1, the residual activity is reported as no less than 79%.

Each molecule was assayed on carbonyl reductase (assay: Reduction activity of the enzyme on various ketones and aldehyde (initial rate of NADPH decrease)). Details: pH 7.
Format: biochemical, Ogataea minuta var. nonfermentans IFO 1473

Compared with O=C(c1ccccc1)C(F)(F)F [2,2,2-Trifluoro-acetophenone], O=C(CCl)c1ccccc1 [2-Chloro-acetophenone] is lower in “Specific activity (%)” value: 100.0% for the first, 19.6% for the second.

Going from N#CCCc1ccccc1 [Benzylacetonitrile] to CCC(=O)c1ccccc1 [Propiophenone], the “Specific activity (%)” value falls from 25.9% to 18.8%.

Going from CC(=O)C(C)=O [Diacetyl] to CC(=O)c1cccc(Cl)c1 [m-Chloro-acetophenone], the “Specific activity (%)” value rises from 12.3% to 30.7%.

Going from O=C1CCCCC1Cl (centres unmarked) [2-Chloro-cyclohexanone] to CC(=O)c1ccc(Cl)cc1 [p-Chloro-acetophenone], the “Specific activity (%)” value falls from 163.0% to 10.2%.

Same assay, conditions: relative to 2,2,2-trifluoroacetophenone defined as 100; NADPH, 0.1 M phosphate buffer pH 7.0

Going from O=Cc1ccccc1Cl [o-Chlorobenzaldehyde] to O=Cc1ccccc1[N+](=O)[O-] [o-Nitrobenzaldehyde], the “Specific activity (%)” value falls from 81.2% to 52.6%.

Going from CC1(Cl)CCCCC1=O (centres unmarked) [2-Chloro-2-Methyl-cyclohexanone] to CC1(C)COC(=O)C1=O [α-Keto-pantolactone], the “Specific activity (%)” value falls from 105.4% to 26.3%.

First: CCOC(=O)CC(=O)c1ccccc1 [Ethyl benzoylacetate]
Second: CC(=O)c1cccc(Br)c1 [m-Bromo-acetophenone]
The “Specific activity (%)” value of the first is lower: 10.9% for the first, 21.3% for the second.

First: O=Cc1cccc(Cl)c1 [m-Chlorobenzaldehyde]
Second: O=Cc1cccc([N+](=O)[O-])c1 [m-Nitrobenzaldehyde]
The “Specific activity (%)” value of the first is lower: 14.3% for the first, 45.6% for the second.

Compared with O=Cc1ccc(Cl)cc1 [p-Chlorobenzaldehyde], CCOC(=O)C(=O)C(C)C [Ethyl-3-methyl-2-oxobutanoate] is higher in “Specific activity (%)” value: 15.2% for the first, 72.1% for the second.

Each molecule was assayed on carbonyl reductase (assay: 2,2,2-trifluoroacetophenone reducing activity after treating the enzyme with various reagents). Details: enzyme treated at 30° C. for 10 minutes.
Format: biochemical, Ogataea minuta var. nonfermentans IFO 1473
Description: Further, the enzyme was treated in various reagents at 30° C. for 10 minutes and then 2,2,2-trifluoroacetophenone reducing activity was measured.

With [Cl][Pb][Cl] [lead chloride] the “activity of enzyme in the presence of reagent” value was “considerably inhibited”.
For O=[N+]([O-])[O-].[Hg+] [mercury nitrate], the “activity of enzyme in the presence of reagent” value was “considerably inhibited”.
